Test results reported in ChEMBL document CHEMBL4507277.

Tests used:
[1] = target: T1, D(4) dopamine receptor (Homo sapiens) (UniProt P21917); conditions: Compound concentration 10.0 uM
T1 sequence (whole entry): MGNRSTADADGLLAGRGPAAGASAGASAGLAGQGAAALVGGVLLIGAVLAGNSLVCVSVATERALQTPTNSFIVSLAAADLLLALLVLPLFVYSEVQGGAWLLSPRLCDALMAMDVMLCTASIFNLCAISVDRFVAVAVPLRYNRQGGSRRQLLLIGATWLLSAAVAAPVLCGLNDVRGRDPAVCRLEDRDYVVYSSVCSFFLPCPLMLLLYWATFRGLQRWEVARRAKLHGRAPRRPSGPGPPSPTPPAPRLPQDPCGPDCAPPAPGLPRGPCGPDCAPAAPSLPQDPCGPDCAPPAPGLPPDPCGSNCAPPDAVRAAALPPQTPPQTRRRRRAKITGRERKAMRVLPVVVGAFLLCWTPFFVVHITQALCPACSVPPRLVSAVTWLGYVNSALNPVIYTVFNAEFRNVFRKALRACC

[2] = target: Serine/threonine-protein kinase TAO2 (Homo sapiens) (UniProt Q9UL54); conditions: Compound concentration 1000.0 nM
[3] = target: Activin receptor type-2B (Homo sapiens) (UniProt Q13705); conditions: Compound concentration 1000.0 nM
[4] = target: Receptor-interacting serine/threonine-protein kinase 2 (Homo sapiens) (UniProt O43353); conditions: Compound concentration 1000.0 nM
[5] = target: Cyclin-dependent kinase 2 homolog (Plasmodium falciparum (isolate 3D7)) (UniProt P61075); conditions: Compound concentration 1000.0 nM
[6] = target: Tyrosine-protein kinase Tec (Homo sapiens) (UniProt P42680); conditions: Compound concentration 1000.0 nM
[7] = target: Dual specificity mitogen-activated protein kinase kinase 3 (Homo sapiens) (UniProt P46734); conditions: Compound concentration 1000.0 nM
[8] = target: Mitogen-activated protein kinase 3 (Homo sapiens) (UniProt P27361); conditions: Compound concentration 1000.0 nM
[9] = target: Platelet-derived growth factor receptor beta (Homo sapiens) (UniProt P09619); conditions: Compound concentration 1000.0 nM
[10] = target: 5-hydroxytryptamine receptor 1B (Homo sapiens) (UniProt P28222); conditions: Compound concentration 10.0 uM
[11] = target: Cyclin-G-associated kinase (Homo sapiens) (UniProt O14976); conditions: Compound concentration 1000.0 nM
[12] = target: Cyclin-dependent kinase-like 3 (Homo sapiens) (UniProt Q8IVW4); conditions: Compound concentration 1000.0 nM
[13] = target: Receptor tyrosine-protein kinase erbB-2 (Homo sapiens) (UniProt P04626); conditions: Compound concentration 1000.0 nM
[14] = target: Phosphatidylinositol 4-phosphate 5-kinase type-1 alpha (Homo sapiens) (UniProt Q99755); conditions: Compound concentration 1000.0 nM
[15] = target: Calcium/calmodulin-dependent protein kinase type II subunit gamma (Homo sapiens) (UniProt Q13555); conditions: Compound concentration 1000.0 nM
[16] = target: Macrophage-stimulating protein receptor (Homo sapiens) (UniProt Q04912); conditions: Compound concentration 1000.0 nM
[17] = target: Muscarinic acetylcholine receptor M2 (Homo sapiens) (UniProt P08172); conditions: Compound concentration 10.0 uM
[18] = target: BMP-2-inducible protein kinase (Homo sapiens) (UniProt Q9NSY1); conditions: Compound concentration 1000.0 nM
[19] = target: Alpha-2C adrenergic receptor (Homo sapiens) (UniProt P18825); conditions: Compound concentration 10.0 uM
[20] = target: Interleukin-1 receptor-associated kinase 1 (Homo sapiens) (UniProt P51617); conditions: Compound concentration 1000.0 nM
[21] = target: Alpha-1B adrenergic receptor (Homo sapiens) (UniProt P35368); conditions: Compound concentration 10.0 uM
[22] = target: Serine/threonine-protein kinase PknB (Mycobacterium tuberculosis) (UniProt P9WI81); conditions: Compound concentration 1000.0 nM
[23] = target: Muscarinic acetylcholine receptor M5 (Homo sapiens) (UniProt P08912); conditions: Compound concentration 10.0 uM
[24] = target: Calcium/calmodulin-dependent protein kinase kinase 2 (Homo sapiens) (UniProt Q96RR4); conditions: Compound concentration 1000.0 nM
[25] = target: Serine/threonine-protein kinase MAK (Homo sapiens) (UniProt P20794); conditions: Compound concentration 1000.0 nM
[26] = target: Dual specificity mitogen-activated protein kinase kinase 5 (Homo sapiens) (UniProt Q13163); conditions: Compound concentration 1000.0 nM
[27] = target: Serine/threonine-protein kinase RIO3 (Homo sapiens) (UniProt O14730); conditions: Compound concentration 1000.0 nM
[28] = target: Death-associated protein kinase 3 (Homo sapiens) (UniProt O43293); conditions: Compound concentration 1000.0 nM
[29] = target: Casein kinase I isoform gamma-1 (Homo sapiens) (UniProt Q9HCP0); conditions: Compound concentration 1000.0 nM
[30] = test system: ALK tyrosine kinase receptor (Homo sapiens), Q9UM73 [L1196M]; conditions: Compound concentration 1000.0 nM
[31] = target: Serine/threonine-protein kinase PLK3 (Homo sapiens) (UniProt Q9H4B4); conditions: Compound concentration 1000.0 nM
[32] = target: SRSF protein kinase 2 (Homo sapiens) (UniProt P78362); conditions: Compound concentration 1000.0 nM
[33] = test system: Receptor-type tyrosine-protein kinase FLT3 (Homo sapiens), P36888 [D835V]; conditions: Compound concentration 1000.0 nM
[34] = target: Tyrosine-protein kinase Lyn (Homo sapiens) (UniProt P07948); conditions: Compound concentration 1000.0 nM
[35] = target: Serine/threonine-protein kinase Nek5 (Homo sapiens) (UniProt Q6P3R8); conditions: Compound concentration 1000.0 nM
[36] = target: Casein kinase I isoform alpha (Homo sapiens) (UniProt P48729); conditions: Compound concentration 1000.0 nM
[37] = target: SNF-related serine/threonine-protein kinase (Homo sapiens) (UniProt Q9NRH2); conditions: Compound concentration 1000.0 nM
[38] = test system: Epidermal growth factor receptor (Homo sapiens), P00533 [UNDEFINED MUTATION]; conditions: Compound concentration 1000.0 nM
[39] = target: Protein kinase C epsilon type (Homo sapiens) (UniProt Q02156); conditions: Compound concentration 1000.0 nM
[40] = target: Serine/threonine-protein kinase D2 (Homo sapiens) (UniProt Q9BZL6); conditions: Compound concentration 1000.0 nM

Sequence of SNF-related serine/threonine-protein kinase (Homo sapiens) (Q9NRH2 whole entry): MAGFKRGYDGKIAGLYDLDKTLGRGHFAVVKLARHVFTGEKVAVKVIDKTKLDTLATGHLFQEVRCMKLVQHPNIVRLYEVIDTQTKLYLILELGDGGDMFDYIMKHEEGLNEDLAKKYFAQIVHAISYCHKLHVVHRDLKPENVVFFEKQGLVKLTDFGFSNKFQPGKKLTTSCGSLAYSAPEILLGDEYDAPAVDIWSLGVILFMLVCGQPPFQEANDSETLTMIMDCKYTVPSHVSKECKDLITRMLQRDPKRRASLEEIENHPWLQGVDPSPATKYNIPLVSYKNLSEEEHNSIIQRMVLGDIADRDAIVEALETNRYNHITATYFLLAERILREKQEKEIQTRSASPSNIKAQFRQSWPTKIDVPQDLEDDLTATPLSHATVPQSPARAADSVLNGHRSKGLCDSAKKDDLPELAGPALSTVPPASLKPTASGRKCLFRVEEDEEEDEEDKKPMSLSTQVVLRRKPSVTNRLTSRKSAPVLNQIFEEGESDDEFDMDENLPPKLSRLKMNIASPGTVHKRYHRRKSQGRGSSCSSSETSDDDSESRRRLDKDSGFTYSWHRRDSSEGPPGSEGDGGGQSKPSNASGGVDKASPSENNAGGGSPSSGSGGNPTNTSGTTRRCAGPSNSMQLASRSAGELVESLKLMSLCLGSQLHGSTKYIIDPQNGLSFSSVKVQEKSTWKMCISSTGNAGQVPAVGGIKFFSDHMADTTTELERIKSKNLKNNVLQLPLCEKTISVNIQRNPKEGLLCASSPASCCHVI
Sequence of Cyclin-dependent kinase-like 3 (Homo sapiens) (Q8IVW4 whole entry, looked up): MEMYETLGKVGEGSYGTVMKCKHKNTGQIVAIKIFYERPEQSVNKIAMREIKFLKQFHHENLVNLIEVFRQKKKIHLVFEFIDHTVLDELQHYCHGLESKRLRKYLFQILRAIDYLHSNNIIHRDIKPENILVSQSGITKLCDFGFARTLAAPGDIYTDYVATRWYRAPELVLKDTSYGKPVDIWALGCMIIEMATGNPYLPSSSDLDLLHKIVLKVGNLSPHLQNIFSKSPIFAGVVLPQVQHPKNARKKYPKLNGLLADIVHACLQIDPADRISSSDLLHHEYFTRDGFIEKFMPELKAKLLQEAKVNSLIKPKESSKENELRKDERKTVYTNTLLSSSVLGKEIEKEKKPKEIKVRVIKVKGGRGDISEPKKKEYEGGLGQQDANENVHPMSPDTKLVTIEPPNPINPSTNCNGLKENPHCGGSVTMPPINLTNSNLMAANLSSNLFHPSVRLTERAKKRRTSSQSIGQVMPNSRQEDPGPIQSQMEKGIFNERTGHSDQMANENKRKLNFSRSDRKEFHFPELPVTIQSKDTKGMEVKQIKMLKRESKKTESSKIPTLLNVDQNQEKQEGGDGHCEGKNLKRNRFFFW
Sequence of Serine/threonine-protein kinase TAO2 (Homo sapiens) (Q9UL54 whole entry): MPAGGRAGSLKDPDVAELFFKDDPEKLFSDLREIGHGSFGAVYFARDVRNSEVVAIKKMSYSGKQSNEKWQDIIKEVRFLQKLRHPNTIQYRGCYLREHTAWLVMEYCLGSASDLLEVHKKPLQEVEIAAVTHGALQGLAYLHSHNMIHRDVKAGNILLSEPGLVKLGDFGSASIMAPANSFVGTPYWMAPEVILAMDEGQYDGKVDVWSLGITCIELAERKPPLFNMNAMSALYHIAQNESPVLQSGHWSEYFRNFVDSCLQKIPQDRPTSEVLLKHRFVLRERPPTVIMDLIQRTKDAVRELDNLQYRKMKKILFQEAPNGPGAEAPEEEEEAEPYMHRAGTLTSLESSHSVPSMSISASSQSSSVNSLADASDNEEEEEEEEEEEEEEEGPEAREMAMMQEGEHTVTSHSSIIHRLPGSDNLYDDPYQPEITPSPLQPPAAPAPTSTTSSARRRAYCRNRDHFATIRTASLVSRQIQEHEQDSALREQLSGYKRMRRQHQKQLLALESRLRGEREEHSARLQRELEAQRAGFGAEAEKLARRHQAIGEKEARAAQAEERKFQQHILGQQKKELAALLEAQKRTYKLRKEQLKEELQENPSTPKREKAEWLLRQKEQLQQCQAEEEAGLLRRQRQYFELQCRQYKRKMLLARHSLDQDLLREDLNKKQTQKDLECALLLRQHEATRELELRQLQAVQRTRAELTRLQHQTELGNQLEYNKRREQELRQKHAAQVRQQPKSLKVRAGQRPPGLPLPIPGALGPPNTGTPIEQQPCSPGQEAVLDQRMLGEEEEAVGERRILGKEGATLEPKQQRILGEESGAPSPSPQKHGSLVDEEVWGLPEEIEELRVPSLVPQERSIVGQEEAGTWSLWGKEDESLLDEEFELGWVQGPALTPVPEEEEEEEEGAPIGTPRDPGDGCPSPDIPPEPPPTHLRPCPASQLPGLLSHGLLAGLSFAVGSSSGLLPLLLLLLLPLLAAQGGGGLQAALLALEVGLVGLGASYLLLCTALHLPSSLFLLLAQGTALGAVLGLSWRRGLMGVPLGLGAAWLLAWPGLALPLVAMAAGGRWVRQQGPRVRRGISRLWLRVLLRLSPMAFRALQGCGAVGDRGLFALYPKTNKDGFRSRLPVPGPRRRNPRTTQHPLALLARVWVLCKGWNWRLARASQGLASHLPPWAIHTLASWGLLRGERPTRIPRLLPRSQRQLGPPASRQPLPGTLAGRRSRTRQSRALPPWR
Sequence of Receptor tyrosine-protein kinase erbB-2 (Homo sapiens) (P04626 whole entry): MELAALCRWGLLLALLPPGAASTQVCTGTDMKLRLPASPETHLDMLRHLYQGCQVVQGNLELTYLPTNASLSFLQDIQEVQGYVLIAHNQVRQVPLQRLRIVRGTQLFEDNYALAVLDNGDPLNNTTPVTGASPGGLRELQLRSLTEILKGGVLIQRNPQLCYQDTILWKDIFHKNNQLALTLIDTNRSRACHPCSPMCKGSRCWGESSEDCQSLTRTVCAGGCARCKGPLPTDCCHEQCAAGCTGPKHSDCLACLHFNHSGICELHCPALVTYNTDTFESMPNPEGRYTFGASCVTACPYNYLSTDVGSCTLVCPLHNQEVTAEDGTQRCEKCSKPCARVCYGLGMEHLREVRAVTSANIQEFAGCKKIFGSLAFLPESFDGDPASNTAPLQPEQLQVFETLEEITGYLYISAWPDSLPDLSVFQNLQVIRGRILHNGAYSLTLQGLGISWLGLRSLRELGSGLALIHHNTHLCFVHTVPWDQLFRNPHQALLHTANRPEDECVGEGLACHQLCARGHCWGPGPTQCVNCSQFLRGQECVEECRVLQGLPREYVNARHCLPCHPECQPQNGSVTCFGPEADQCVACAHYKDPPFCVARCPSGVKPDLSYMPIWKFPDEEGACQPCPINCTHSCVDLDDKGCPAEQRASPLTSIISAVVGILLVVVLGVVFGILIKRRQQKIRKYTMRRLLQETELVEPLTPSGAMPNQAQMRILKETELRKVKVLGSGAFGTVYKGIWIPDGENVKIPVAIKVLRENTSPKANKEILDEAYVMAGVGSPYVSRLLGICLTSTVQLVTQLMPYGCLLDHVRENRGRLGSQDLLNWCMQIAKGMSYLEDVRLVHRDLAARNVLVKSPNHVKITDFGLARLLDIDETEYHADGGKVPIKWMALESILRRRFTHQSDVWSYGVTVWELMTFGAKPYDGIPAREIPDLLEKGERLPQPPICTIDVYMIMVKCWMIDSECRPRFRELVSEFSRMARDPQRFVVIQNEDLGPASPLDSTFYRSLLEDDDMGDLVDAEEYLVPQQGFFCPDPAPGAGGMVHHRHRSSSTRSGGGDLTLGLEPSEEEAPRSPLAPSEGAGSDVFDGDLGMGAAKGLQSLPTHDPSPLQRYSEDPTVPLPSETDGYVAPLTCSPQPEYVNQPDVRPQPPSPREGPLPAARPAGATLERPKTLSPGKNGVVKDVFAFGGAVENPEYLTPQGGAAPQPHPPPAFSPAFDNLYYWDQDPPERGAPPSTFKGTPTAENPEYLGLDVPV
Sequence of Tyrosine-protein kinase Lyn (Homo sapiens) (P07948 2-512 limits assumed): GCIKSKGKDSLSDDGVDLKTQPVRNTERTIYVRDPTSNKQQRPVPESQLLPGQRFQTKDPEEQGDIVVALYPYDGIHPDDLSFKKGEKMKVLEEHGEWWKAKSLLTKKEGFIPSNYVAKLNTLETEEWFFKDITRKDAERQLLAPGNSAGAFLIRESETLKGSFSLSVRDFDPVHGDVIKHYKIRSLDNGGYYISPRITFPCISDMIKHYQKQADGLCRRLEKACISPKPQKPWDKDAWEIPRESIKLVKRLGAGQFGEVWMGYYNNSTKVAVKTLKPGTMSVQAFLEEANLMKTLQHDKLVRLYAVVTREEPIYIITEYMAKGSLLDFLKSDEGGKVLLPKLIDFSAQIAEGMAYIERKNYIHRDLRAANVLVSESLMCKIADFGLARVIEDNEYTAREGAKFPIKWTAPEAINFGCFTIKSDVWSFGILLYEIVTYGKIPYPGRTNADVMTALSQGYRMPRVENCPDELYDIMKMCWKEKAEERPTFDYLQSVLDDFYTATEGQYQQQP
Sequence of Dual specificity mitogen-activated protein kinase kinase 5 (Homo sapiens) (Q13163 whole entry): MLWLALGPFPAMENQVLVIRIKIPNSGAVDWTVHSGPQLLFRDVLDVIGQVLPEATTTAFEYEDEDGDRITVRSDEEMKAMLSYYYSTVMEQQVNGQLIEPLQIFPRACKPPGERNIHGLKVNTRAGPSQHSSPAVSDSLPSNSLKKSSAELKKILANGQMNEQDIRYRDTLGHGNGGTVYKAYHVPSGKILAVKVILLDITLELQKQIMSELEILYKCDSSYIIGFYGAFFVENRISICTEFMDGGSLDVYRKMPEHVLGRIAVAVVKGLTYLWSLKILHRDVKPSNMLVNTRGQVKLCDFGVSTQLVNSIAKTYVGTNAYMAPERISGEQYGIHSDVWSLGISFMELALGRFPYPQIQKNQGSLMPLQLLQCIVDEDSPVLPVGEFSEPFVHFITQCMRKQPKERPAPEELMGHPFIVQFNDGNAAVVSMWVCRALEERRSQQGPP

CCS(=O)(=O)c1cc2cc(C[C@](O)(CC(C)(C)c3ccc(F)cc3C(N)=O)C(F)(F)F)[nH]c2cn1
inactive: inhibition [1] -7.41% | residual activity [2] 85% | residual activity [3] 98% | residual activity [4] 67% | residual activity [5] 100% | residual activity [6] 90% | residual activity [7] 100% | residual activity [8] 93% | residual activity [9] 100% | inhibition [10] 9.55% | residual activity [11] 100% | residual activity [12] 100% | residual activity [13] 100% | residual activity [14] 100% | residual activity [15] 100% | residual activity [16] 100% | inhibition [17] -0.48% | residual activity [18] 83% | inhibition [19] -1.88% | residual activity [20] 99% | inhibition [21] 3.39% | residual activity [22] 95% | inhibition [23] 1.86% | residual activity [24] 100% | residual activity [25] 100% | residual activity [26] 100% | residual activity [27] 91% | residual activity [28] 97% | residual activity [29] 96% | residual activity [30] 87% | residual activity [31] 93% | residual activity [32] 82% | residual activity [33] 95% | residual activity [34] 100% | residual activity [35] 100% | residual activity [36] 100% | residual activity [37] 100% | residual activity [38] 100% | residual activity [39] 96% | residual activity [40] 96%

CCS(=O)(=O)c1cc2cc(C[C@@](O)(CC(C)(C)c3ccc(F)cc3C(N)=O)C(F)(F)F)[nH]c2cn1
inactive: inhibition [1] 5.32% | residual activity [2] 76% | residual activity [3] 100% | residual activity [4] 100% | residual activity [5] 100% | residual activity [6] 100% | residual activity [7] 67% | residual activity [8] 98% | residual activity [9] 100% | inhibition [10] 4.85% | residual activity [11] 71% | residual activity [12] 90% | residual activity [13] 100% | residual activity [14] 100% | residual activity [15] 77% | residual activity [16] 85% | inhibition [17] -8.82% | residual activity [18] 69% | inhibition [19] 5.83% | residual activity [20] 80% | inhibition [21] 1.64% | residual activity [22] 84% | inhibition [23] -0.62% | residual activity [24] 56% | residual activity [25] 100% | residual activity [26] 81% | residual activity [27] 74% | residual activity [28] 100% | residual activity [29] 100% | residual activity [30] 100% | residual activity [31] 99% | residual activity [32] 70% | residual activity [33] 79% | residual activity [34] 100% | residual activity [35] 100% | residual activity [36] 86% | residual activity [37] 98% | residual activity [38] 93% | residual activity [39] 100% | residual activity [40] 89%
